± gives the expanded uncertainty stated by the source.

These results are taken from the NIST ThermoML archive (doi:10.1021/je100529s).

The data set can be described thus: activity coefficient (dimensionless); of the first substance listed, at infinite dilution; xn = mol fraction of the nth substance listed. The following applies: Liquid, Gas Stripping Method, x1 = 0.

Turning to `C=CC=C` [1,3-butadiene] + Cc1ccccc1O, the activity coefficient was 2.87 ± 0.17 (299.99 K), 2.81 ± 0.17 (309.99 K), 2.72 ± 0.16 (319.99 K) and 2.63 ± 0.16 (329.99 K).

As to `C=CC` [propene] + Cc1ccccc1O, the activity coefficient (299.99 K) worked out at 3.81 ± 0.23, the activity coefficient (309.99 K) was found to be 3.71 ± 0.22, the activity coefficient (319.99 K) came out at 3.6 ± 0.22 and the activity coefficient (329.99 K) was 3.48 ± 0.21.

On to `CCC` [propane] + Cc1ccccc1O, for which the activity coefficient reads like this: (299.99 K) 6.34 ± 0.38; (309.99 K) 6.04 ± 0.36; (319.99 K) 5.83 ± 0.35; (329.99 K) 5.58 ± 0.33.

Regarding `C=C(C)C` [2-methylpropene] + Cc1ccc(O)cc1, the activity coefficient amounted to 4.44 ± 0.27 (309.99 K), 4.34 ± 0.26 (319.99 K), 4.2 ± 0.25 (329.99 K) and 4.07 ± 0.24 (340.02 K).

As to `CC(F)F` [1,1-difluoroethane] + Cc1ccccc1O, the activity coefficient came out at 4.02 ± 0.24 (299.99 K), 3.84 ± 0.23 (309.99 K), 3.67 ± 0.22 (319.99 K) and 3.49 ± 0.21 (329.99 K).

On to `CC(F)F` [1,1-difluoroethane] + Cc1cccc(O)c1, for which the activity coefficient reads like this: (289.98 K) 4.79 ± 0.29; (299.98 K) 4.59 ± 0.28; (309.99 K) 4.37 ± 0.26; (319.99 K) 4.16 ± 0.25; (329.99 K) 3.98 ± 0.24.

On to `CCC` [propane] + Cc1ccc(O)cc1, for which the activity coefficient reads like this: (309.99 K) 6.29 ± 0.38; (319.99 K) 6.12 ± 0.37; (329.99 K) 5.93 ± 0.36; (340.02 K) 5.74 ± 0.34.

`C/C=C\C` [(Z)-2-butene] + Cc1ccccc1O: the activity coefficient was 3.79 ± 0.23 (299.99 K), 3.69 ± 0.22 (309.99 K), 3.57 ± 0.21 (319.99 K) and 3.44 ± 0.21 (329.99 K).

`C=C(C)C` [2-methylpropene] + Cc1cccc(O)c1: the activity coefficient by setting is: (289.98 K) 4.66 ± 0.28; (299.98 K) 4.56 ± 0.27; (309.99 K) 4.42 ± 0.27; (319.99 K) 4.3 ± 0.26; (329.99 K) 4.16 ± 0.25.

`C=CC=C` [1,3-butadiene] + Cc1cccc(O)c1: the activity coefficient (289.98 K) worked out at 3.32 ± 0.2; the activity coefficient (299.98 K) turned out to be 3.26 ± 0.2; the activity coefficient (309.99 K) is 3.22 ± 0.19; the activity coefficient (319.99 K) worked out at 3.13 ± 0.19; the activity coefficient (329.99 K) was 3.05 ± 0.18.

For `C/C=C\C` [(Z)-2-butene] + Cc1cccc(O)c1, the activity coefficient turned out to be 4.29 ± 0.26 (289.98 K); 4.2 ± 0.25 (299.98 K); 4.09 ± 0.25 (309.99 K); 3.99 ± 0.24 (319.99 K); 3.88 ± 0.23 (329.99 K).

As to `CCCC` [butane] + Cc1cccc(O)c1, the activity coefficient by setting is: (289.98 K) 7.22 ± 0.43; (299.98 K) 7.06 ± 0.42; (309.99 K) 6.88 ± 0.41; (319.99 K) 6.6 ± 0.4; (329.99 K) 6.33 ± 0.38.

Take `C=CCC` [1-butene] + Cc1ccccc1O: the activity coefficient reads like this: (299.99 K) 4.29 ± 0.26; (309.99 K) 4.15 ± 0.25; (319.99 K) 4.03 ± 0.24; (329.99 K) 3.87 ± 0.23.

In the case of `C=CC=C` [1,3-butadiene] + Cc1ccc(O)cc1, the activity coefficient came to 3.26 ± 0.2 (309.99 K), 3.16 ± 0.19 (319.99 K), 3.07 ± 0.18 (329.99 K) and 2.99 ± 0.18 (340.02 K).

As for `C=CCC` [1-butene] + Cc1ccc(O)cc1, the activity coefficient was found to be 4.66 ± 0.28 (309.99 K), 4.55 ± 0.27 (319.99 K), 4.4 ± 0.26 (329.99 K) and 4.26 ± 0.26 (340.02 K).

`CCCC` [butane] + Cc1ccccc1O: the activity coefficient reads like this: (299.99 K) 6.92 ± 0.42; (309.99 K) 6.61 ± 0.4; (319.99 K) 6.26 ± 0.38; (329.99 K) 5.92 ± 0.36.

`C/C=C/C` [(E)-2-butene] + Cc1ccccc1O: the activity coefficient was determined as 4.25 ± 0.26 (299.99 K), 4.13 ± 0.25 (309.99 K), 3.98 ± 0.24 (319.99 K) and 3.82 ± 0.23 (329.99 K).

In the case of `C/C=C\C` [(Z)-2-butene] + Cc1ccc(O)cc1, the activity coefficient runs as follows: (309.99 K) 4.12 ± 0.25; (319.99 K) 4.03 ± 0.24; (329.99 K) 3.91 ± 0.23; (340.02 K) 3.8 ± 0.23.

In the case of `C=CCC` [1-butene] + Cc1cccc(O)c1, the activity coefficient runs as follows: (289.98 K) 4.86 ± 0.29; (299.98 K) 4.75 ± 0.29; (309.99 K) 4.62 ± 0.28; (319.99 K) 4.48 ± 0.27; (329.99 K) 4.36 ± 0.26.

Regarding `C=C(C)C` [2-methylpropene] + Cc1ccccc1O, the activity coefficient (299.99 K) was 4.11 ± 0.25, the activity coefficient (309.99 K) is 3.98 ± 0.24, the activity coefficient (319.99 K) turned out to be 3.84 ± 0.23 and the activity coefficient (329.99 K) stood at 3.7 ± 0.22.

As for `CCCC` [butane] + Cc1ccc(O)cc1, the activity coefficient reads like this: (309.99 K) 6.88 ± 0.41; (319.99 K) 6.62 ± 0.4; (329.99 K) 6.32 ± 0.38; (340.02 K) 6.09 ± 0.37.

Take `CCCl` [chloroethane] + Cc1ccc(O)cc1: the activity coefficient runs as follows: (309.98 K) 2.09 ± 0.13; (319.98 K) 2.06 ± 0.12; (329.99 K) 1.98 ± 0.12; (340.01 K) 1.93 ± 0.12.

In the case of `CCC` [propane] + Cc1cccc(O)c1, the activity coefficient by setting is: (289.98 K) 6.31 ± 0.38; (299.98 K) 6.36 ± 0.38; (309.99 K) 6.24 ± 0.37; (319.99 K) 6.06 ± 0.36; (329.99 K) 5.88 ± 0.35.

With `CCCl` [chloroethane] + Cc1cccc(O)c1, the activity coefficient reads like this: (289.97 K) 2.13 ± 0.13; (299.98 K) 2.1 ± 0.13; (309.98 K) 2.05 ± 0.12; (319.99 K) 1.99 ± 0.12; (329.99 K) 1.93 ± 0.12.

For `CC(C)C` [2-methylpropane] + Cc1ccccc1O, the activity coefficient runs as follows: (299.99 K) 7.92 ± 0.48; (309.99 K) 7.57 ± 0.45; (319.99 K) 7.14 ± 0.43; (329.99 K) 6.73 ± 0.4.

With `COC` [dimethyl ether] + Cc1ccc(O)cc1, the activity coefficient reads like this: (309.98 K) 0.16 ± 0.01; (319.98 K) 0.19 ± 0.01; (329.99 K) 0.21 ± 0.01; (340.01 K) 0.24 ± 0.02.

`CC(F)F` [1,1-difluoroethane] + Cc1ccc(O)cc1: the activity coefficient by setting is: (309.99 K) 4.46 ± 0.27; (319.99 K) 4.26 ± 0.26; (329.99 K) 4.07 ± 0.24; (340.02 K) 3.88 ± 0.23.

As for `CC(C)C` [2-methylpropane] + Cc1cccc(O)c1, the activity coefficient reads like this: (289.98 K) 8.35 ± 0.5; (299.98 K) 8.11 ± 0.49; (309.99 K) 7.87 ± 0.47; (319.99 K) 7.54 ± 0.45; (329.99 K) 7.21 ± 0.43.

Turning to `C/C=C/C` [(E)-2-butene] + Cc1ccc(O)cc1, the activity coefficient reads like this: (309.99 K) 4.48 ± 0.27; (319.99 K) 4.35 ± 0.26; (329.99 K) 4.25 ± 0.26; (340.02 K) 4.14 ± 0.25.

Regarding `C/C=C/C` [(E)-2-butene] + Cc1cccc(O)c1, the activity coefficient is, setting by setting: (289.98 K) 4.68 ± 0.28; (299.98 K) 4.57 ± 0.27; (309.99 K) 4.49 ± 0.27; (319.99 K) 4.35 ± 0.26; (329.99 K) 4.23 ± 0.25.

Regarding `CC(C)C` [2-methylpropane] + Cc1ccc(O)cc1, the activity coefficient (309.99 K) amounted to 7.93 ± 0.48, the activity coefficient (319.99 K) was found to be 7.62 ± 0.46, the activity coefficient (329.99 K) was found to be 7.3 ± 0.44 and the activity coefficient (340.02 K) worked out at 7.03 ± 0.42.

On to `C=CC` [propene] + Cc1cccc(O)c1, for which the activity coefficient runs as follows: (289.98 K) 4.1 ± 0.25; (299.98 K) 4.13 ± 0.25; (309.99 K) 4.05 ± 0.24; (319.99 K) 3.97 ± 0.24; (329.99 K) 3.88 ± 0.23.

`C=CC` [propene] + Cc1ccc(O)cc1: the activity coefficient (309.99 K) stood at 4.07 ± 0.24, the activity coefficient (319.99 K) was 4.02 ± 0.24, the activity coefficient (329.99 K) stood at 3.92 ± 0.24 and the activity coefficient (340.02 K) was determined as 3.84 ± 0.23.

For the compound `CCCl` [chloroethane] + Cc1ccccc1O, the activity coefficient (299.99 K) turned out to be 1.83 ± 0.11, the activity coefficient (309.98 K) turned out to be 1.77 ± 0.11, the activity coefficient (319.98 K) came out at 1.76 ± 0.11 and the activity coefficient (329.99 K) was determined as 1.7 ± 0.1.

Take `COC` [dimethyl ether] + Cc1ccccc1O: the activity coefficient turned out to be 0.1 ± 0.01 (299.99 K), 0.12 ± 0.01 (309.98 K), 0.14 ± 0.01 (319.98 K) and 0.18 ± 0.01 (329.99 K).

For the compound `COC` [dimethyl ether] + Cc1cccc(O)c1, the activity coefficient runs as follows: (289.97 K) 0.11 ± 0.01; (299.98 K) 0.13 ± 0.01; (309.98 K) 0.15 ± 0.01; (319.99 K) 0.18 ± 0.01; (329.99 K) 0.2 ± 0.01.
